Source: patent publication US4782057A, “Benzo[h]cinnoline compound, a method of preparing said compound and a pharmaceutical composition” (Yoshitomi Pharmaceutical Industries, Ltd., priority 1984, dated 1988)

Tests used:
benzodiazepine receptor = assay: Displacement of tritiated diazepam from benzodiazepine receptor (crude synaptosomal membranes of rat cerebral cortex); type: binding, male Wistar rats; details: tritiated diazepam 2 nM, 4° C., 20 minutes, Tris-HCl pH 7.4
Description: A displacement ability for benzodiazepine receptor is shown as follows:
A specific binding for benzodiazepine receptor was determined according to the methods described in European Journal of Pharmacology, vol. 51, p. 129 (1978) and Life Science, vol. 20, p. 1201 (1977).
In brief, the crude synaptosomal membranes were prepared from the cerebral cortex of 9 to 10 week-old male Wistar rats and were suspended in Tris-HCl buffer (pH 7.4). Various concentrations of test compounds and tritiated diazepam (final concentration: 2 nM) were incubated at 4° C. for 20 minutes. Then the suspension was filtered through Whatman GF/B glass fiber filters. Radioactivity of tritiated diazepam on the filters was measured by liquid scintillation spectrometry. Specific binding was defined as the difference in the amount of radioactivity bound in the absence and presence of 1.0×10^-6 M unlabeled diazepam.
According to the above experimental method, the affinity of the compounds of the present invention is evaluated as an ability to displace tritiated diazepam from the binding site, and is represented as Ki value.

mice = assay: Acute toxicity in mice; type: in vivo
Source text: The compound of Example 13 was orally or intraperitoneally administered to mice.

`O=C1CC2CCc3ccc(Cl)cc3C2=NN1c1ccccc1` (stereo not shown) [Example 1, 9-chloro-2-phenyl-4,4a,5,6-tetrahydrobenzo[h]cinnolin-3(2H)-one] showed a Ki (benzodiazepine receptor) of 120 nM.
Compound `O=c1cc2c(nn1-c1ccccc1)-c1cc(Cl)ccc1CC2` [Example 2, 9-chloro-2-phenyl-5,6-dihydrobenzo[h]cinnolin-3(2H)-one] has a Ki (benzodiazepine receptor) of 190 nM.
`O=c1cc2c(nn1-c1ccccc1)-c1ccccc1CC2` [Example 3, 2-phenyl-5,6-dihydrobenzo[h]cinnolin-3(2H)-one] gave a Ki (benzodiazepine receptor) of 130 nM.
With `Cc1ccc(N2N=C3c4cc(C)ccc4CCC3CC2=O)cc1` (stereo not shown) [Example 11, 9-Methyl-2-(4-methylphenyl)-4,4a,5,6-tetrahydrobenzo[h]cinnolin-3(2H)-one] the Ki (benzodiazepine receptor) was 16 nM.
With `Cc1ccc2c(c1)C1=NN(c3ccc(Cl)cc3)C(=O)CC1CC2` (stereo not shown) [Example 12, 2-(4-Chlorophenyl)-9-methyl-4,4a,5,6-tetrahydrobenzo[h]cinnolin-3(2H)-one] the Ki (benzodiazepine receptor) was 26 nM.
In the case of `COc1ccc(N2N=C3c4cc(C)ccc4CCC3CC2=O)cc1` (stereo not shown) [Example 13, 2-(4-Methoxyphenyl)-9-methyl-4,4a,5,6-tetrahydrobenzo[h]cinnolin-3(2H)-one], the “survival, acute toxicity” value (mice; intraperitoneal dose of 250 mg/kg) is reported as “All mice survived”, the “survival, acute toxicity” value (mice; oral dose of 1000 mg/kg) is reported as “All mice survived” and the Ki (benzodiazepine receptor) is reported as 6.6 nM.
In the case of `COc1ccc2c(c1)C1=NN(c3ccc(C)cc3)C(=O)CC1CC2` (stereo not shown) [Example 14, 9-Methoxy-2-(4-methylphenyl)-4,4a,5,6-tetrahydrobenzo[h]cinnolin-3(2H)-one], the Ki (benzodiazepine receptor) is reported as 8.2 nM.
`Cc1ccc(-n2nc3c(cc2=O)CCc2ccc(Cl)cc2-3)cc1` [Example 15, 9-Chloro-2-(4-methylphenyl)-5,6-dihydrobenzo[h]cinnolin-3(2H)-one] was tested, and the Ki (benzodiazepine receptor) was 28 nM.
For `Cc1ccc(N2N=C3c4cc(Cl)ccc4CCC3CC2=O)cc1` (stereo not shown) [Example 16, 9-Chloro-2-(4-methylphenyl)-4,4a,5,6-tetrahydrobenzo[h]cinnolin-3(2H)-one], the Ki (benzodiazepine receptor) was 14 nM.
For `O=c1cc2c(nn1-c1ccc(Cl)cc1)-c1cc(Cl)ccc1CC2` [Example 17, 9-Chloro-2-(4-chlorophenyl)-5,6-dihydrobenzo[h]cinnolin-3(2H)-one], the Ki (benzodiazepine receptor) was 47 nM.
`O=c1cc2c(nn1-c1ccc([N+](=O)[O-])cc1)-c1cc(Cl)ccc1CC2` [Example 18, 9-Chloro-2-(4-nitrophenyl)-5,6-dihydrobenzo[h]cinnolin-3(2H)-one] was tested, and the Ki (benzodiazepine receptor) was 90 nM.
Work on `O=c1cc2c(nn1-c1ccc(Cl)cc1)-c1cc(F)ccc1CC2` [Example 19, 2-(4-Chlorophenyl)-9-fluoro-5,6-dihydrobenzo[h]cinnolin-3(2H)-one] yielded a Ki (benzodiazepine receptor) of 45 nM.
Compound `O=C1CC2CCc3ccc(F)cc3C2=NN1c1ccc(Cl)cc1` (stereo not shown) [Example 20, 2-(4-Chlorophenyl)-9-fluoro-4,4a,5,6-tetrahydrobenzo[h]cinnolin-3(2H)-one] has a Ki (benzodiazepine receptor) of 34 nM.
For `O=c1cc2c(nn1-c1ccccc1)-c1cc(F)ccc1CC2` [Example 30, 9-Fluoro-2-phenyl-5,6-dihydrobenzo[h]cinnolin-3(2H)-one], the Ki (benzodiazepine receptor) was 220 nM.
